Assay results reported in US12441703B2, “Carboxamides as modulators of sodium channels” (VERTEX PHARMACEUTICALS INCORPORATED, priority 2019, dated 2025).

target: human NaV 1.8 (Homo sapiens, UniProt Q9Y5Y9); assay: E-VIPR assay for detecting and measuring NaV inhibition properties; type: cell-based; conditions: E-VIPR assay conducted in the presence of human serum; HEK cells expressing truncated human NaV 1.8; read-out: IC50
In short: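 Membrane-potential (coumarin/oxonol) readout after 10 s of 10 Hz biphasic electrical stimulation on E-VIPR. Compounds: 11-point 3-fold dilutions, […], 0.625% DMSO, 30 min at room temperature, human serum optional. Cells: HEK expressing truncated human NaV1.8 co-transduced with KIR2.1.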

Chain of human NaV 1.8 (Q9Y5Y9 whole entry, looked up, the tested form may be a part): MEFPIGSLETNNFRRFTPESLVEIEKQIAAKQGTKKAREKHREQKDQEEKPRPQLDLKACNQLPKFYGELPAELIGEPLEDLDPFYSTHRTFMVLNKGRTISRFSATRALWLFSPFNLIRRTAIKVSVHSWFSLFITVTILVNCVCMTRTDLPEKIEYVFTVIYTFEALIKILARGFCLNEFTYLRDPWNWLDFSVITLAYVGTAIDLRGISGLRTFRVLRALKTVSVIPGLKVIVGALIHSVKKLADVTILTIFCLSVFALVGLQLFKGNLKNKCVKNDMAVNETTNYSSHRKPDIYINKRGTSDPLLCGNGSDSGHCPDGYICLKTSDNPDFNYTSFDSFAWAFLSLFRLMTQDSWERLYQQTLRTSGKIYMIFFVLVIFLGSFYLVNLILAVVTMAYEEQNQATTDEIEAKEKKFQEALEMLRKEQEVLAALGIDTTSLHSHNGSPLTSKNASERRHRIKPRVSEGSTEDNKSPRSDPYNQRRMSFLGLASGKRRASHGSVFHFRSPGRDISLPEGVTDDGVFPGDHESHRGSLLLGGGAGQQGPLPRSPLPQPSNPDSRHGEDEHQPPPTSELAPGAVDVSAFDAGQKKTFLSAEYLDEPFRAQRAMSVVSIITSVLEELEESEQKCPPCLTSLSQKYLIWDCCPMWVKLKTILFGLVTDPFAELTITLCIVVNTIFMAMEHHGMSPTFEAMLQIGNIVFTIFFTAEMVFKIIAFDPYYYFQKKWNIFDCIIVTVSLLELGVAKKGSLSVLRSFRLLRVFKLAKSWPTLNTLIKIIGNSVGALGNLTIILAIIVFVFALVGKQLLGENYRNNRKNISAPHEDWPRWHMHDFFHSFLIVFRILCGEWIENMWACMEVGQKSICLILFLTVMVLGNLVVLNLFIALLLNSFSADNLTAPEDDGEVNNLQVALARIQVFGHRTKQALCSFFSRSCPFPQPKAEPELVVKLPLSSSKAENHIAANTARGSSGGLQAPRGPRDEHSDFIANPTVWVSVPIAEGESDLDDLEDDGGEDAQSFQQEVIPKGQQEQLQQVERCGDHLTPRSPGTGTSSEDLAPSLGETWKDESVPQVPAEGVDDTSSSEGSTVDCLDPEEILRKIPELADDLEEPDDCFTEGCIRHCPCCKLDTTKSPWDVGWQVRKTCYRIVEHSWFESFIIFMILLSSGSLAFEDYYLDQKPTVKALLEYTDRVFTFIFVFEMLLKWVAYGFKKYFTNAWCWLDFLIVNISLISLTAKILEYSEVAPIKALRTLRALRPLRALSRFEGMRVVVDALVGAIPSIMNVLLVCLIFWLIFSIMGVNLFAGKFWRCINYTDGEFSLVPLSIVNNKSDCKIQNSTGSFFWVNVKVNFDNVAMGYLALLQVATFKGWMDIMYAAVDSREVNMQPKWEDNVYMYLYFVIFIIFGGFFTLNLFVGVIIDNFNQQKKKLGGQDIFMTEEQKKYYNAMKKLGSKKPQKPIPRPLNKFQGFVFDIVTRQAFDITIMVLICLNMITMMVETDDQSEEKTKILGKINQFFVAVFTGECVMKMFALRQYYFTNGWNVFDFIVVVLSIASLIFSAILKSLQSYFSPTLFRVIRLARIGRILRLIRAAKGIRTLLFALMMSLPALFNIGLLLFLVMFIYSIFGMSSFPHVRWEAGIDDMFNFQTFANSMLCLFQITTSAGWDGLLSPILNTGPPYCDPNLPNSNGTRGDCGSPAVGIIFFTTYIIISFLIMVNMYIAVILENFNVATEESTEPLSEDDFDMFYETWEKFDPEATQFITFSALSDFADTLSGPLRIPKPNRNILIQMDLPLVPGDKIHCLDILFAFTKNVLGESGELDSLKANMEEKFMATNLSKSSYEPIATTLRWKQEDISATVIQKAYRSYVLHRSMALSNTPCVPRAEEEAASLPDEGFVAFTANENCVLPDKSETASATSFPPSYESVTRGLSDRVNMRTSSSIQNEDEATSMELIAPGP

| IC50 | Structure (SMILES) |
| --- | --- |
| 280 nM | COc1cc(C(F)(F)C(F)(F)F)ccc1Oc1ccc(C(F)(F)F)c(F)c1C(=O)Nc1ccc(C(N)=O)nc1 [Compound 210, 5-[[2-fluoro-6-[2-methoxy-4-(1,1,2,2,2-pentafluoroethyl)phenoxy]-3-(trifluoromethyl)benzoyl]amino]pyridine-2-carboxamide] |
| > 3000 nM | COc1cc(C)cc(OC)c1Oc1ccc(C(F)(F)F)c(F)c1C(=O)Nc1ccc(C(N)=O)nc1 [Compound 211, 5-[[6-(2,6-dimethoxy-4-methyl-phenoxy)-2-fluoro-3-(trifluoromethyl)benzoyl]amino]pyridine-2-carboxamide] |
| > 3000 nM | NC(=O)c1ccc(NC(=O)c2c(Oc3c(F)cc(F)cc3F)ccc(C(F)(F)F)c2F)cn1 [Compound 212, 5-[[2-fluoro-3-(trifluoromethyl)-6-(2,4,6-trifluorophenoxy)benzoyl]amino]pyridine-2-carboxamide] |
| > 3000 nM | Cc1cc(Cl)cc(Cl)c1Oc1ccc(C(F)(F)F)c(F)c1C(=O)Nc1ccc(C(N)=O)nc1 [Compound 213, 5-[[6-(2,4-dichloro-6-methyl-phenoxy)-2-fluoro-3-(trifluoromethyl)benzoyl]amino]pyridine-2-carboxamide] |
| > 3000 nM | Cc1c(F)ccc(Oc2ccc(C(F)(F)F)c(F)c2C(=O)Nc2ccc(C(N)=O)nc2)c1C [Compound 214, 5-[[2-fluoro-6-(4-fluoro-2,3-dimethyl-phenoxy)-3-(trifluoromethyl)benzoyl]amino]pyridine-2-carboxamide] |
| 570 nM | NC(=O)c1ccc(NC(=O)c2c(Oc3ccc(F)c(F)c3F)ccc(C(F)(F)F)c2F)cn1 [Compound 215, 5-[[2-fluoro-3-(trifluoromethyl)-6-(2,3,4-trifluorophenoxy)benzoyl]amino]pyridine-2-carboxamide] |
| 340 nM | NC(=O)c1ccc(NC(=O)c2c(Oc3ccc(OC(F)(F)F)c(F)c3)ccc(C(F)(F)F)c2F)cn1 [Compound 216, 5-[[2-fluoro-6-[3-fluoro-4-(trifluoromethoxy)phenoxy]-3-(trifluoromethyl)benzoyl]amino]pyridine-2-carboxamide] |
| 160 nM | NC(=O)c1ccc(NC(=O)c2c(Oc3ccc(OC(F)(F)F)c(Cl)c3)ccc(C(F)(F)F)c2F)cn1 [Compound 217, 5-[[6-[3-chloro-4-(trifluoromethoxy)phenoxy]-2-fluoro-3-(trifluoromethyl)benzoyl]amino]pyridine-2-carboxamide] |
| 735 nM | Cc1cc(Cl)ccc1Oc1ccc(C(F)(F)F)c(F)c1C(=O)Nc1ccc(C(N)=O)nc1 [Compound 218, 5-[[6-(4-chloro-2-methyl-phenoxy)-2-fluoro-3-(trifluoromethyl)benzoyl]amino]pyridine-2-carboxamide] |
| 1500 nM | NC(=O)c1ccc(NC(=O)c2c(Oc3ccc(Cl)cc3F)ccc(C(F)(F)F)c2F)cn1 [Compound 219, 5-[[6-(4-chloro-2-fluoro-phenoxy)-2-fluoro-3-(trifluoromethyl)benzoyl]amino]pyridine-2-carboxamide] |
| 530 nM | COc1cc(Cl)ccc1Oc1ccc(C(F)(F)F)c(F)c1C(=O)Nc1ccc(C(N)=O)nc1 [Compound 220, 5-[[6-(4-chloro-2-methoxy-phenoxy)-2-fluoro-3-(trifluoromethyl)benzoyl]amino]pyridine-2-carboxamide] |
| 430 nM | NC(=O)c1ccc(NC(=O)c2c(Oc3ccc(OC(F)(F)F)cc3F)ccc(C(F)(F)F)c2F)cn1 [Compound 221, 5-[[2-fluoro-6-[2-fluoro-4-(trifluoromethoxy)phenoxy]-3-(trifluoromethyl)benzoyl]amino]pyridine-2-carboxamide] |
| 120 nM | Cc1cc(OC(F)(F)F)ccc1Oc1ccc(C(F)(F)F)c(F)c1C(=O)Nc1ccc(C(N)=O)nc1 [Compound 222, 5-[[2-fluoro-6-[2-methyl-4-(trifluoromethoxy)phenoxy]-3-(trifluoromethyl)benzoyl]amino]pyridine-2-carboxamide] |
| 130 nM | NC(=O)c1ccc(NC(=O)c2c(Oc3ccc(OC(F)(F)F)cc3Cl)ccc(C(F)(F)F)c2F)cn1 [Compound 223, 5-[[6-[2-chloro-4-(trifluoromethoxy)phenoxy]-2-fluoro-3-(trifluoromethyl)benzoyl]amino]pyridine-2-carboxamide] |
| 6 nM | COc1c(Oc2ccc(C(F)(F)F)c(C)c2C(=O)Nc2ccc(C(N)=O)nc2)ccc(OC(F)(F)F)c1F [Compound 224, 5-[[6-[3-fluoro-2-methoxy-4-(trifluoromethoxy)phenoxy]-2-methyl-3-(trifluoromethyl)benzoyl]amino]pyridine-2-carboxamide] |
| 1500 nM | Cc1c(C(F)(F)F)ccc(Oc2ccc(F)c(F)c2F)c1C(=O)Nc1ccc(C(N)=O)nc1 [Compound 225, 5-[[2-methyl-3-(trifluoromethyl)-6-(2,3,4-trifluorophenoxy)benzoyl]amino]pyridine-2-carboxamide] |
| 140 nM | Cc1c(C(F)(F)F)ccc(Oc2ccc(OC(F)(F)F)cc2C2CC2)c1C(=O)Nc1ccc(C(N)=O)nc1 [Compound 226, 5-[[6-[2-cyclopropyl-4-(trifluoromethoxy)phenoxy]-2-methyl-3-(trifluoromethyl)benzoyl]amino]pyridine-2-carboxamide] |
| 610 nM | Cc1c(Oc2ccc(C(F)(F)F)c(C)c2C(=O)Nc2ccc(C(N)=O)nc2)ccc(F)c1F [Compound 227, 5-[[6-(3,4-difluoro-2-methyl-phenoxy)-2-methyl-3-(trifluoromethyl)benzoyl]amino]pyridine-2-carboxamide] |
| > 3000 nM | COc1cc(C)cc(OC)c1Oc1ccc(C(F)(F)F)c(C)c1C(=O)Nc1ccc(C(N)=O)nc1 [Compound 228, 5-[[6-(2,6-dimethoxy-4-methyl-phenoxy)-2-methyl-3-(trifluoromethyl)benzoyl]amino]pyridine-2-carboxamide] |
| > 3000 nM | Cc1cc(Cl)cc(C)c1Oc1ccc(C(F)(F)F)c(C)c1C(=O)Nc1ccc(C(N)=O)nc1 [Compound 229, 5-[[6-(4-chloro-2,6-dimethyl-phenoxy)-2-methyl-3-(trifluoromethyl)benzoyl]amino]pyridine-2-carboxamide] |
| > 3000 nM | Cc1c(C(F)(F)F)ccc(Oc2c(F)cc(F)cc2F)c1C(=O)Nc1ccc(C(N)=O)nc1 [Compound 230, 5-[[2-methyl-3-(trifluoromethyl)-6-(2,4,6-trifluorophenoxy)benzoyl]amino]pyridine-2-carboxamide] |
| > 3000 nM | Cc1c(F)ccc(Oc2ccc(C(F)(F)F)c(C)c2C(=O)Nc2ccc(C(N)=O)nc2)c1C [Compound 231, 5-[[6-(4-fluoro-2,3-dimethyl-phenoxy)-2-methyl-3-(trifluoromethyl)benzoyl]amino]pyridine-2-carboxamide] |
| 1500 nM | COc1cc(F)ccc1Oc1ccc(C(F)(F)F)c(C)c1C(=O)Nc1ccc(C(N)=O)nc1 [Compound 232, 5-[[6-(4-fluoro-2-methoxy-phenoxy)-2-methyl-3-(trifluoromethyl)benzoyl]amino]pyridine-2-carboxamide] |
| 1400 nM | Cc1cc(Cl)ccc1Oc1ccc(C(F)(F)F)c(C)c1C(=O)Nc1ccc(C(N)=O)nc1 [Compound 233, 5-[[6-(4-chloro-2-methyl-phenoxy)-2-methyl-3-(trifluoromethyl)benzoyl]amino]pyridine-2-carboxamide] |
